Experimental data: the CheMixHub ionic liquid set
± gives the uncertainty stated by the source.

Experiment: xn = mol fraction of the nth substance listed

Work on `CCCCCC[n+]1ccn(C)c1.O=S(=O)([N-]S(=O)(=O)C(F)(F)F)C(F)(F)F` + O=C1CCCO1 yielded an electrical conductivity (293.15 K, 100 kPa, frequency 0.005 MHz, x2 = 0.2973) of 0.296 ± 0.009 S/m, an electrical conductivity (293.15 K, 100 kPa, frequency 0.005 MHz, x2 = 0.9001) of 1.11 ± 0.034 S/m and an electrical conductivity (293.15 K, 100 kPa, frequency 0.005 MHz, x2 = 0.9493) of 0.746 ± 0.025 S/m. It also gave an electrical conductivity (298.15 K, 100 kPa, frequency 0.005 MHz, x2 = 0.1076) of 0.261 ± 0.008 S/m, an electrical conductivity (298.15 K, 100 kPa, frequency 0.005 MHz, x2 = 0.9493) of 0.819 ± 0.028 S/m and an electrical conductivity (303.15 K, 100 kPa, frequency 0.005 MHz, x2 = 0) of 0.273 ± 0.008 S/m. For the same compound, the electrical conductivity (303.15 K, 100 kPa, frequency 0.005 MHz, x2 = 0.4956) was 0.657 ± 0.02 S/m, the electrical conductivity (303.15 K, 100 kPa, frequency 0.005 MHz, x2 = 0.9001) was 1.34 ± 0.041 S/m and the electrical conductivity (308.15 K, 100 kPa, frequency 0.005 MHz, x2 = 0) was 0.33 ± 0.01 S/m. For the same compound, the electrical conductivity (308.15 K, 100 kPa, frequency 0.005 MHz, x2 = 0.1076) was 0.387 ± 0.012 S/m, the electrical conductivity (308.15 K, 100 kPa, frequency 0.005 MHz, x2 = 0.2973) was 0.514 ± 0.016 S/m and the electrical conductivity (308.15 K, 100 kPa, frequency 0.005 MHz, x2 = 0.9001) was 1.45 ± 0.044 S/m. For the same compound, the electrical conductivity (313.15 K, 100 kPa, frequency 0.005 MHz, x2 = 0.1076) was 0.459 ± 0.014 S/m, the electrical conductivity (313.15 K, 100 kPa, frequency 0.005 MHz, x2 = 0.2973) was 0.596 ± 0.018 S/m and the electrical conductivity (313.15 K, 100 kPa, frequency 0.005 MHz, x2 = 0.6996) was 1.31 ± 0.04 S/m. It also gave an electrical conductivity (313.15 K, 100 kPa, frequency 0.005 MHz, x2 = 0.8456) of 1.61 ± 0.048 S/m, an electrical conductivity (318.15 K, 100 kPa, frequency 0.005 MHz, x2 = 0.2973) of 0.687 ± 0.021 S/m and an electrical conductivity (318.15 K, 100 kPa, frequency 0.005 MHz, x2 = 0.8456) of 1.73 ± 0.052 S/m. The electrical conductivity (318.15 K, 100 kPa, frequency 0.005 MHz, x2 = 0.9493) was 1.11 ± 0.038 S/m, the electrical conductivity (323.15 K, 100 kPa, frequency 0.005 MHz, x2 = 0) was 0.553 ± 0.017 S/m and the electrical conductivity (323.15 K, 100 kPa, frequency 0.005 MHz, x2 = 0.1076) was 0.624 ± 0.019 S/m. The electrical conductivity (323.15 K, 100 kPa, frequency 0.005 MHz, x2 = 0.2973) was 0.788 ± 0.024 S/m, the electrical conductivity (323.15 K, 100 kPa, frequency 0.005 MHz, x2 = 0.8001) was 1.85 ± 0.056 S/m and the electrical conductivity (323.15 K, 100 kPa, frequency 0.005 MHz, x2 = 0.8456) was 1.88 ± 0.057 S/m.

With `CC[n+]1ccn(CCOC)c1.O=S(=O)([O-])C(F)(F)F` + CCO the viscosity (288.15 K, 101 kPa, x1 = 0.2996) was 7.66 ± 0.28 mPa·s, the viscosity (293.15 K, 101 kPa, x1 = 0.699) was 35.3 ± 1.1 mPa·s and the viscosity (293.15 K, 101 kPa, x1 = 0.797) was 47.3 ± 1.3 mPa·s. For the same compound, the viscosity (293.15 K, 101 kPa, x1 = 0.899) was 64.4 ± 1.7 mPa·s, the viscosity (298.15 K, 101 kPa, x1 = 0.1999) was 3.6 ± 0.11 mPa·s and the viscosity (298.15 K, 101 kPa, x1 = 0.797) was 38.9 ± 1.1 mPa·s. For the same compound, the viscosity (303.15 K, 101 kPa, x1 = 0.0996) was 1.934 ± 0.047 mPa·s, the viscosity (303.15 K, 101 kPa, x1 = 0.1999) was 3.231 ± 0.095 mPa·s and the viscosity (303.15 K, 101 kPa, x1 = 1) was 57.9 ± 1.5 mPa·s. For the same compound, the viscosity (308.15 K, 101 kPa, x1 = 0.603) was 14.85 ± 0.53 mPa·s, the viscosity (308.15 K, 101 kPa, x1 = 0.797) was 26.79 ± 0.74 mPa·s and the viscosity (308.15 K, 101 kPa, x1 = 0.899) was 37.34 ± 0.96 mPa·s. It also gave a viscosity (313.15 K, 101 kPa, x1 = 0.797) of 22.71 ± 0.6 mPa·s and a viscosity (318.15 K, 101 kPa, x1 = 0.797) of 19.43 ± 0.5 mPa·s.

For `CC[S+](CC)CCOCCOCCOCC[S+](CC)CC.N#C[N-]C#N.N#C[N-]C#N` + CC[n+]1ccn(C)c1.N#C[N-]C#N + O=S(=O)([N-]S(=O)(=O)C(F)(F)F)C(F)(F)F.[Li+], the electrical conductivity (298 K, 100 kPa, x1 = 0.2479, x2 = 0.6613) was 0.454 ± 0.018 S/m, the electrical conductivity (303 K, 100 kPa, x1 = 0.2479, x2 = 0.6613) was 0.548 ± 0.022 S/m and the electrical conductivity (313 K, 100 kPa, x1 = 0.2479, x2 = 0.6613) was 0.811 ± 0.032 S/m. The electrical conductivity (323 K, 100 kPa, x1 = 0.2479, x2 = 0.6613) was 1.09 ± 0.044 S/m, the electrical conductivity (333 K, 100 kPa, x1 = 0.2479, x2 = 0.6613) was 1.4 ± 0.056 S/m and the electrical conductivity (343 K, 100 kPa, x1 = 0.2479, x2 = 0.6613) was 1.78 ± 0.071 S/m.

Compound `NCCO` + CN1CCCC1=O + CCCC[n+]1ccn(C)c1.O=S(=O)([N-]S(=O)(=O)C(F)(F)F)C(F)(F)F has a viscosity (293.15 K, 101 kPa, x1 = 0.1608, x2 = 0.8154) of 3.357 ± 0.03 mPa·s, a viscosity (293.15 K, 101 kPa, x1 = 0.2089, x2 = 0.7256) of 4.749 ± 0.045 mPa·s and a viscosity (293.15 K, 101 kPa, x1 = 0.2436, x2 = 0.6371) of 6.416 ± 0.064 mPa·s. For the same compound, the viscosity (298.15 K, 101 kPa, x1 = 0.1608, x2 = 0.8154) was 3.042 ± 0.027 mPa·s, the viscosity (298.15 K, 101 kPa, x1 = 0.2089, x2 = 0.7256) was 4.206 ± 0.039 mPa·s and the viscosity (298.15 K, 101 kPa, x1 = 0.2436, x2 = 0.6371) was 5.617 ± 0.056 mPa·s. For the same compound, the viscosity (303.15 K, 101 kPa, x1 = 0.1608, x2 = 0.8154) was 2.776 ± 0.025 mPa·s, the viscosity (303.15 K, 101 kPa, x1 = 0.2089, x2 = 0.7256) was 3.761 ± 0.035 mPa·s and the viscosity (303.15 K, 101 kPa, x1 = 0.2436, x2 = 0.6371) was 4.959 ± 0.049 mPa·s. The viscosity (308.15 K, 101 kPa, x1 = 0.1608, x2 = 0.8154) was 2.553 ± 0.023 mPa·s, the viscosity (308.15 K, 101 kPa, x1 = 0.2089, x2 = 0.7256) was 3.388 ± 0.032 mPa·s and the viscosity (308.15 K, 101 kPa, x1 = 0.2436, x2 = 0.6371) was 4.413 ± 0.044 mPa·s. The viscosity (313.15 K, 101 kPa, x1 = 0.1608, x2 = 0.8154) was 2.364 ± 0.021 mPa·s, the viscosity (313.15 K, 101 kPa, x1 = 0.2089, x2 = 0.7256) was 3.089 ± 0.029 mPa·s and the viscosity (313.15 K, 101 kPa, x1 = 0.2436, x2 = 0.6371) was 3.958 ± 0.04 mPa·s. The viscosity (318.15 K, 101 kPa, x1 = 0.1608, x2 = 0.8154) was 2.204 ± 0.02 mPa·s, the viscosity (318.15 K, 101 kPa, x1 = 0.2089, x2 = 0.7256) was 2.818 ± 0.026 mPa·s and the viscosity (318.15 K, 101 kPa, x1 = 0.2436, x2 = 0.6371) was 3.575 ± 0.036 mPa·s. It also gave a viscosity (323.15 K, 101 kPa, x1 = 0.1608, x2 = 0.8154) of 2.068 ± 0.018 mPa·s, a viscosity (323.15 K, 101 kPa, x1 = 0.2089, x2 = 0.7256) of 2.599 ± 0.024 mPa·s and a viscosity (323.15 K, 101 kPa, x1 = 0.2436, x2 = 0.6371) of 3.254 ± 0.032 mPa·s. The viscosity (328.15 K, 101 kPa, x1 = 0.1608, x2 = 0.8154) was 1.95 ± 0.017 mPa·s, the viscosity (328.15 K, 101 kPa, x1 = 0.2089, x2 = 0.7256) was 2.41 ± 0.023 mPa·s and the viscosity (328.15 K, 101 kPa, x1 = 0.2436, x2 = 0.6371) was 2.982 ± 0.03 mPa·s. The viscosity (333.15 K, 101 kPa, x1 = 0.1608, x2 = 0.8154) was 1.848 ± 0.016 mPa·s, the viscosity (333.15 K, 101 kPa, x1 = 0.2089, x2 = 0.7256) was 2.252 ± 0.021 mPa·s and the viscosity (333.15 K, 101 kPa, x1 = 0.2436, x2 = 0.6371) was 2.752 ± 0.027 mPa·s.

Work on `CCCCCC[n+]1ccn(C)c1.O=S(=O)([N-]S(=O)(=O)C(F)(F)F)C(F)(F)F` + ClC(Cl)Cl yielded an electrical conductivity (288.5 K, 101 kPa, x1 = 0.196) of 0.462 S/m, an electrical conductivity (288.5 K, 101 kPa, x1 = 0.97) of 0.146 S/m and an electrical conductivity (318.5 K, 101 kPa, x1 = 0.335) of 0.845 S/m. The electrical conductivity (318.5 K, 101 kPa, x1 = 0.956) was 0.469 S/m and the electrical conductivity (318.5 K, 101 kPa, x2 = 0.006) was 0.459 S/m.

In the case of `CCCCCC[n+]1ccn(C)c1.[Br-]` + O, the viscosity (288.15 K, 100 kPa, x1 = 0.0001802) is reported as 1.159 ± 0.044 mPa·s, the viscosity (288.15 K, 100 kPa, x1 = 0.0007203) is reported as 1.165 ± 0.044 mPa·s and the viscosity (288.15 K, 100 kPa, x1 = 0.00126) is reported as 1.171 ± 0.044 mPa·s. For the same compound, the viscosity (288.15 K, 101 kPa, x1 = 1.982e-05) was 1.136 ± 0.024 mPa·s, the viscosity (288.15 K, 101 kPa, x1 = 3.243e-05) was 1.138 ± 0.024 mPa·s and the viscosity (288.15 K, 101 kPa, x1 = 6.667e-05) was 1.142 ± 0.024 mPa·s. The viscosity (298.15 K, 100 kPa, x1 = 0.0001802) was 0.926 ± 0.043 mPa·s, the viscosity (298.15 K, 100 kPa, x1 = 0.0007203) was 0.934 ± 0.043 mPa·s and the viscosity (298.15 K, 100 kPa, x1 = 0.00126) was 0.942 ± 0.043 mPa·s. The viscosity (298.15 K, 100 kPa, x2 = 0.9008) was 6.89 ± 0.35 mPa·s, the viscosity (298.15 K, 101 kPa, x1 = 3.243e-05) was 0.891 ± 0.019 mPa·s and the viscosity (298.15 K, 101 kPa, x1 = 6.667e-05) was 0.896 ± 0.019 mPa·s. The viscosity (298.15 K, 101 kPa, x1 = 0.001844) was 0.948 ± 0.013 mPa·s, the viscosity (298.15 K, 101 kPa, x1 = 0.003654) was 1.005 ± 0.014 mPa·s and the viscosity (298.15 K, 101 kPa, x1 = 0.005425) was 1.053 ± 0.014 mPa·s. It also gave a viscosity (298.15 K, 101 kPa, x1 = 0.007153) of 1.101 ± 0.014 mPa·s, a viscosity (308.15 K, 100 kPa, x1 = 0.0001802) of 0.762 ± 0.043 mPa·s and a viscosity (308.15 K, 100 kPa, x1 = 0.0007203) of 0.77 ± 0.043 mPa·s. For the same compound, the viscosity (308.15 K, 100 kPa, x1 = 0.00126) was 0.776 ± 0.043 mPa·s, the viscosity (308.15 K, 101 kPa, x1 = 1.982e-05) was 0.722 ± 0.016 mPa·s and the viscosity (308.15 K, 101 kPa, x1 = 3.243e-05) was 0.723 ± 0.016 mPa·s. The viscosity (308.15 K, 101 kPa, x1 = 6.667e-05) was 0.726 ± 0.016 mPa·s, the viscosity (318.15 K, 100 kPa, x1 = 0.0001802) was 0.645 ± 0.042 mPa·s and the viscosity (318.15 K, 100 kPa, x1 = 0.0007203) was 0.643 ± 0.042 mPa·s. It also gave a viscosity (318.15 K, 100 kPa, x1 = 0.00126) of 0.66 ± 0.043 mPa·s.
